{"source": "paper PMC8924334", "about": "“Synthesis of [^11C]carbonyl-labeled cyclohexyl (5-(2-acetamidobenzo[d]thiazol-6-yl)-2-methylpyridin-3-yl)carbamate ([^11C-carbonyl]PK68) as a potential PET tracer for receptor-interacting protein 1 kinase” (EJNMMI Radiopharmacy and Chemistry, 2022)", "origin": "cited, not measured here", "key": {"[1]": {"system": "RIPK1", "set-up": "method as in Hou et al. 2019", "settings": "human cell line; ref Hou et al. 2019; cited from earlier work"}, "[2]": {"system": "RIPK1", "set-up": "method as in Hou et al. 2019", "settings": "mouse cell line; ref Hou et al. 2019; cited from earlier work"}, "[3]": {"system": "melanoma (B16F10)", "set-up": "method as in Hou et al. 2019", "settings": "B16F10-bearing mice; ref Hou et al. 2019; cited from earlier work"}, "[4]": {"system": "RIPK1", "set-up": "method as in Degterev et al. 2005", "settings": "ref Degterev et al. 2005; cited from earlier work"}, "[5]": {"system": "RIPK1", "set-up": "method as in Harris et al. 2017", "settings": "human cells; ref Harris et al. 2017; cited from earlier work"}, "[6]": {"system": "RIPK1", "set-up": "method as in Harris et al. 2017, 2019", "settings": "rodents; ref Harris et al. 2017, 2019; cited from earlier work"}}, "note": "Where two headings read alike, the source gives them in different places."}
{"compound": "CC(=O)Nc1nc2ccc(-c3cnc(C)c(NC(=O)OC4CCCCC4)c3)cc2s1", "note": "[PK68, cyclohexyl (5-(2-acetamidobenzo[d]thiazol-6-yl)-2-methylpyridin-3-yl)carbamate]", "values": [{"measurement": "IC50", "setting": "[1]", "value": 23, "unit": "nM"}, {"measurement": "IC50", "setting": "[2]", "value": 13, "unit": "nM"}, {"measurement": "number of tumor metastases", "setting": "[3]", "value": "significant reduction in the number of tumor metastases"}]}
{"compound": "CN1C(=O)C(Cc2c[nH]c3ccccc23)NC1=S", "note": "(centres unmarked) [compound 1, Necrostatin-1]", "values": [{"measurement": "EC50", "setting": "[4]", "value": 490, "unit": "nM"}, {"measurement": "number of tumor metastases", "setting": "[3]", "value": "significant reduction in the number of tumor metastases"}]}
{"compound": "CN1C(=O)NC(Cc2c[nH]c3c(Cl)cccc23)C1=O", "note": "(centres unmarked) [compound 2, 7-Cl-O-Nec-1]", "values": [{"measurement": "EC50", "setting": "[4]", "value": 210, "unit": "nM"}]}
{"compound": "CN1C(=O)[C@@H](NC(=O)c2n[nH]c(Cc3ccccc3)n2)COc2ccccc21", "note": "[compound 3]", "values": [{"measurement": "IC50", "setting": "[5]", "value": 6.3, "unit": "nM"}, {"measurement": "IC50", "setting": "[6]", "value": "> 1000", "unit": "nM"}]}
